Values of other authors, collected in PMC13167888 (Cancer Chemotherapy and Pharmacology, 2026).

What was measured:
BCRP = molecular target: T1, BCRP (Homo sapiens, UniProt Q9UNQ0)
T1 sequence (Q9UNQ0 1-655): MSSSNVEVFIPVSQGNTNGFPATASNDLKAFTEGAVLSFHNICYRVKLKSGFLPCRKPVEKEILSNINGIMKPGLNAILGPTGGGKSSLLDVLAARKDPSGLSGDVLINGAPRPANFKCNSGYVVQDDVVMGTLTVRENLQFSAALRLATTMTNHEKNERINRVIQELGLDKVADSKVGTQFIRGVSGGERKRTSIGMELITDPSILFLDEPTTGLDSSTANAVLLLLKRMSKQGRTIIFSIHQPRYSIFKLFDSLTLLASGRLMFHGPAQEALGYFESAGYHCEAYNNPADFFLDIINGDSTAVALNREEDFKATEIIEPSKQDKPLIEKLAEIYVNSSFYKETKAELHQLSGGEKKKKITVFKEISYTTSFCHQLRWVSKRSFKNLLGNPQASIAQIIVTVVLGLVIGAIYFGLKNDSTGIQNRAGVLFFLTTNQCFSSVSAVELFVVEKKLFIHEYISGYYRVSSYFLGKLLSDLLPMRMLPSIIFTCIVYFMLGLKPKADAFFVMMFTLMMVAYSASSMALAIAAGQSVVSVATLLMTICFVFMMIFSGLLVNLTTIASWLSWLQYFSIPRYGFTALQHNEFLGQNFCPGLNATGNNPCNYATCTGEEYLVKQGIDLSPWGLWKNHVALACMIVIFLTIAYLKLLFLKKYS

[1] = bosutinib

IC50 (BCRP)	Plasma protein binding [1]	Structure (SMILES)
3.2 µM		CC(C)/N=c1\cc2n(-c3ccc(Cl)cc3)c3ccccc3nc-2cc1Nc1ccc(Cl)cc1 [clofazimine]
	94% [37]	COc1cc(Nc2c(C#N)cnc3cc(OCCCN4CCN(C)CC4)c(OC)cc23)c(Cl)cc1Cl [bosutinib]
